From ChEMBL document CHEMBL5143696, “Discovery of novel benzothiophene derivatives as potent and narrow spectrum inhibitors of DYRK1A and DYRK1B” (Bioorg Med Chem Lett, 2022)
The source made the active and inactive calls. The calls are words filed in the database; no cut-off is given here.

Tests used:
[1] = molecular target: T1, Dual specificity tyrosine-phosphorylation-regulated kinase 1A (Homo sapiens, UniProt Q13627); experiment: Inhibition of NanoLuc-fused human DYRK1A expressed in HEK293 cells using Nano-Glo as substrate incubated for 2 hrs by NanoBRET assay; format: cell-based
[2] = molecular target: T1, Dual specificity tyrosine-phosphorylation-regulated kinase 1A; experiment: Inhibition of human DYRK1A incubated for 90 mins in presence of ATP by Z-LYTE based FRET assay
[3] = molecular target: T2, Dual specificity tyrosine-phosphorylation-regulated kinase 1B (Homo sapiens, UniProt Q9Y463); experiment: Inhibition of human DYRK1B incubated for 130 mins in presence of ATP by ADP-Glo kinase assay
Target sequence in this assay (Q9Y463 whole entry, the tested form may be a part): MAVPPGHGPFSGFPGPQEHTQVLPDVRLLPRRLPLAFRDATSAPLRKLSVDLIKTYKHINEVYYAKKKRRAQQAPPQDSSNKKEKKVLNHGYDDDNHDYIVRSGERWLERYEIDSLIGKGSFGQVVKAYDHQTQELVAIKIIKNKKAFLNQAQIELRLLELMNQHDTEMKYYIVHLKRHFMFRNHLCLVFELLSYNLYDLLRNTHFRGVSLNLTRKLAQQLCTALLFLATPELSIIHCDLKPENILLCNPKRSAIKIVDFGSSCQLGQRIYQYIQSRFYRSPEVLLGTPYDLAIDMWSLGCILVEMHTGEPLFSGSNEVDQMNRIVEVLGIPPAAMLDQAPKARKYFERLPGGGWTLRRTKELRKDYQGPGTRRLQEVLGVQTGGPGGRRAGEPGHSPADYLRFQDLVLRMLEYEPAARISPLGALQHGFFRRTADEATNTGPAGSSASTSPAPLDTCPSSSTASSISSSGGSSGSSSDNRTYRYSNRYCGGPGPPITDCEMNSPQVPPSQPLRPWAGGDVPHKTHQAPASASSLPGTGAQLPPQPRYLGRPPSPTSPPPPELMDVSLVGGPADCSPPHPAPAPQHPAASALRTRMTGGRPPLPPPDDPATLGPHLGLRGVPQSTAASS

[4] = molecular target: T2, Dual specificity tyrosine-phosphorylation-regulated kinase 1B; experiment: Inhibition of NanoLuc-fused human DYRK1B expressed in HEK293T cells using Nano-Glo as substrate incubated for 2 hrs by NanoBRET assay; format: cell-based
Target sequence in this assay (Q9Y463 whole entry, the tested form may be a part): as above

[5] = molecular target: Cyclin-dependent kinase 6 (Homo sapiens) (UniProt Q00534); experiment: Inhibition of N-terminal GST-tagged full length human recombinant CDK6 expressed in Sf9 insect cells at 1 uM incubated for 60 mins in presence of [gamma33P]ATP by microplate scintillation counter relative to control
Chain of Cyclin-dependent kinase 6 (Homo sapiens) (Q00534 whole entry): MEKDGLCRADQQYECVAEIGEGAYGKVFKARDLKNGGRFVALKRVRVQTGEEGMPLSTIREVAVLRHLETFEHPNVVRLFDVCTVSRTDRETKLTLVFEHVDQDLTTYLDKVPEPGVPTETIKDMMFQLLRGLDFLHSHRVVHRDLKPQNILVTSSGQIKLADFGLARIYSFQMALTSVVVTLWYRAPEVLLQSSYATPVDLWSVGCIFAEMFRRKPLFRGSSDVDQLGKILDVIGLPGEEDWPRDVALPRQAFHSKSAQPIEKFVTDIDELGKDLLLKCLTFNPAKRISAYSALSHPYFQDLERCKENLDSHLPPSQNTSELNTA

[6] = Inhibition of His6-tagged full length human recombinant CDK11 expressed in Sf9 insect cells at 1 uM incubated for 60 mins in presence of [gamma33P]ATP by microplate scintillation counter relative to control
[7] = molecular target: Mitogen-activated protein kinase 7 (Homo sapiens) (UniProt Q13164); experiment: Inhibition of N-terminal recombinant human ERK5 expressed in Sf9 insect cells at 1 uM incubated for 60 mins in presence of [gamma33P]ATP by microplate scintillation counter relative to control
Chain of Mitogen-activated protein kinase 7 (Homo sapiens) (Q13164 2-816 limits assumed): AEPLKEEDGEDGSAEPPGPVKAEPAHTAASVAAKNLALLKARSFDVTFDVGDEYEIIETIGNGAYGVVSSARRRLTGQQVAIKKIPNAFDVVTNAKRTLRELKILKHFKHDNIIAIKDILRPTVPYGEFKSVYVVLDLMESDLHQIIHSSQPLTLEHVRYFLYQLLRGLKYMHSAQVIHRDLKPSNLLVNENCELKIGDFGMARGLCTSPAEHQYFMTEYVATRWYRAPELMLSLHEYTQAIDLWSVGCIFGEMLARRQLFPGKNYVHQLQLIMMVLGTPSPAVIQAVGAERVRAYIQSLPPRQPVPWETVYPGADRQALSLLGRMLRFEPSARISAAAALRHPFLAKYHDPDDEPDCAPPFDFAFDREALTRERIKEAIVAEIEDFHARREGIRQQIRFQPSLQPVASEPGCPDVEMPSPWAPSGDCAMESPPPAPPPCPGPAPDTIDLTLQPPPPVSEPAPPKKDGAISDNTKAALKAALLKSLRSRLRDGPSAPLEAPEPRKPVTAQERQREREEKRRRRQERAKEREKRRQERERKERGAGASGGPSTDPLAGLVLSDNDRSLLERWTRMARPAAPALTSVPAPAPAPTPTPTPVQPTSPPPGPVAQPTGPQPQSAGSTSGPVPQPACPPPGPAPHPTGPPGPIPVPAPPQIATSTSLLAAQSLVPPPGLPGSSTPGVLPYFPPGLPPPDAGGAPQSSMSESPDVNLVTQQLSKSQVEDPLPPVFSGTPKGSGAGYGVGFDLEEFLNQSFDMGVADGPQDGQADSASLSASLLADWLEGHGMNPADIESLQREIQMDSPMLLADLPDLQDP

[8] = molecular target: T3, Inhibitor of nuclear factor kappa-B kinase subunit alpha (Homo sapiens) (UniProt O15111); experiment: Inhibition of full length human recombinant IKKalpha expressed in baculovirus infected Sf9 cells at 1 uM incubated for 60 mins in presence of [gamma33P]ATP by microplate scintillation counter relative to control
T3 sequence (whole entry): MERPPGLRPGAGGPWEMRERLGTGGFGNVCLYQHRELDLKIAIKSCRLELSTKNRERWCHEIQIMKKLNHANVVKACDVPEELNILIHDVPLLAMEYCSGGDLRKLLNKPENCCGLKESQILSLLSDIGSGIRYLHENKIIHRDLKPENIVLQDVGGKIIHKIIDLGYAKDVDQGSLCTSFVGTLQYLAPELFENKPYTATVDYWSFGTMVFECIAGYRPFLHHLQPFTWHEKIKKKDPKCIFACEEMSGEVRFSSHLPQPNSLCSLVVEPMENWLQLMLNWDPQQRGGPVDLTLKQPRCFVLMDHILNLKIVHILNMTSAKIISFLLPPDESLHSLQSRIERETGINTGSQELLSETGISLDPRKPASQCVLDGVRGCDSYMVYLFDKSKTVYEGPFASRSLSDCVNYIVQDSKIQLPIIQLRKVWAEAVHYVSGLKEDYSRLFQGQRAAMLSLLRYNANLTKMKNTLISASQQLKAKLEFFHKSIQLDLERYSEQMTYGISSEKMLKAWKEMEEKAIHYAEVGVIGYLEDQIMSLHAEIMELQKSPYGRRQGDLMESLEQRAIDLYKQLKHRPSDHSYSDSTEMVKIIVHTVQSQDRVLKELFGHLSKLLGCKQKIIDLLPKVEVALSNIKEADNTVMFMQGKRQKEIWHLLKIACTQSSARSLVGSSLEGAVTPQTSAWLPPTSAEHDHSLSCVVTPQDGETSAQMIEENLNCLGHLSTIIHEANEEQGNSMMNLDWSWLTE

[9] = molecular target: T4, Serine/threonine-protein kinase TAO3 (Homo sapiens) (UniProt Q9H2K8); experiment: Inhibition of full length human recombinant TAOK3 expressed in baculovirus infected Sf9 cells at 1 uM incubated for 60 mins in presence of [gamma33P]ATP by microplate scintillation counter relative to control
T4 sequence (whole entry): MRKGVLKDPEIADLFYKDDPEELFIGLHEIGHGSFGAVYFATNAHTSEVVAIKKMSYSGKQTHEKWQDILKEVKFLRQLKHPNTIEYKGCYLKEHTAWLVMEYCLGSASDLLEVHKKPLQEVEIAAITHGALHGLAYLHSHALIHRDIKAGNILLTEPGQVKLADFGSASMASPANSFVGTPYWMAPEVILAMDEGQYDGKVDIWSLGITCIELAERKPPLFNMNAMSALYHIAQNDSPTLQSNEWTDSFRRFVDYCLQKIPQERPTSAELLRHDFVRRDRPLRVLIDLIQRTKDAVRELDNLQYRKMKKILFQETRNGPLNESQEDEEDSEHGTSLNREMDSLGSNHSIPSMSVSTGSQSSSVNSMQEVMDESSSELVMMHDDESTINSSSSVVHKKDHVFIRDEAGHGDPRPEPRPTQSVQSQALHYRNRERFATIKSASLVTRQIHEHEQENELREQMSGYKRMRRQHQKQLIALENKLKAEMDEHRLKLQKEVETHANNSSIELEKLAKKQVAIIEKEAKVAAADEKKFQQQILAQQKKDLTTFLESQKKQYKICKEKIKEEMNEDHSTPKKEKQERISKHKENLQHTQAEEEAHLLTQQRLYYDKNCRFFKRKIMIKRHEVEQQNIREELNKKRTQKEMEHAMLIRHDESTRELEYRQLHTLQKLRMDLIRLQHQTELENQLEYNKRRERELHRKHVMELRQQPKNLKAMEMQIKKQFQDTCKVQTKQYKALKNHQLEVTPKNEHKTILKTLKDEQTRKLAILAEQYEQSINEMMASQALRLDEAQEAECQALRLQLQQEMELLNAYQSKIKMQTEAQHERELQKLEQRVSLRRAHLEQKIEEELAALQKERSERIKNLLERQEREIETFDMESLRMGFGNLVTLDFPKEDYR

[10] = molecular target: Cyclin-dependent kinase 8 (Homo sapiens) (UniProt P49336); experiment: Inhibition of N-terminal GST-tagged full length human recombinant CDK8 expressed in Sf9 insect cells at 1 uM incubated for 60 mins in presence of [gamma33P]ATP by microplate scintillation counter relative to control
Chain of Cyclin-dependent kinase 8 (Homo sapiens) (P49336 whole entry): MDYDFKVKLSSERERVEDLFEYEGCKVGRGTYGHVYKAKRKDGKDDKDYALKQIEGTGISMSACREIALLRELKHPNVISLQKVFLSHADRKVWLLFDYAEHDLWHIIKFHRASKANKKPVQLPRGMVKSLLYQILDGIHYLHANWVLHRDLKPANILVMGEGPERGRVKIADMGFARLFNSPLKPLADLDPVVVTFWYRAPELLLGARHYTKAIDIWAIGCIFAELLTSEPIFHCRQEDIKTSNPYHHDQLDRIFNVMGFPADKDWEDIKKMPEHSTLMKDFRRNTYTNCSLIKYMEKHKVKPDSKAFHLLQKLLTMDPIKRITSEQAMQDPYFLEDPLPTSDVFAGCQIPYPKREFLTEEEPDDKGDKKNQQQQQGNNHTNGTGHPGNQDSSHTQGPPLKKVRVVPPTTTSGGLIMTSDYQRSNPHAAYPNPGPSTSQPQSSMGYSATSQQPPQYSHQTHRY

[11] = molecular target: Cyclin-dependent kinase 4 (Homo sapiens) (UniProt P11802); experiment: Inhibition of N-terminal GST-tagged full length human recombinant CDK4 expressed in Sf9 insect cells at 1 uM incubated for 60 mins in presence of [gamma33P]ATP by microplate scintillation counter relative to control
[12] = molecular target: Serine/threonine-protein kinase pim-3 (Homo sapiens) (UniProt Q86V86); experiment: Inhibition of His6-tagged full length human recombinant PIM3 expressed in Sf9 insect cells at 1 uM incubated for 60 mins in presence of [gamma33P]ATP by microplate scintillation counter relative to control
[13] = molecular target: Cyclin-dependent kinase 5 (Homo sapiens) (UniProt Q00535); experiment: Inhibition of N-terminal GST-tagged full length human recombinant CDK5 expressed in Sf9 insect cells at 1 uM incubated for 60 mins in presence of [gamma33P]ATP by microplate scintillation counter relative to control
Chain of Cyclin-dependent kinase 5 (Homo sapiens) (Q00535 whole entry, looked up): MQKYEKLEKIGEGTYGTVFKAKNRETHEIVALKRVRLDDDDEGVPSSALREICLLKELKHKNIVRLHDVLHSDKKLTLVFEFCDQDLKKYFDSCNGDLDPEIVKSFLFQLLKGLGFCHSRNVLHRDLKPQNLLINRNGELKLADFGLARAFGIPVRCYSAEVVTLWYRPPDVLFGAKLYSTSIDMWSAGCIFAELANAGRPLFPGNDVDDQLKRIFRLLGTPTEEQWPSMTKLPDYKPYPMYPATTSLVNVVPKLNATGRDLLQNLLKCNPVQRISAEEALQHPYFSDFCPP

[14] = molecular target: T1, Dual specificity tyrosine-phosphorylation-regulated kinase 1A; experiment: Inhibition of human DYRK1A expressed in Sf9 insect cells at 1 uM incubated for 60 mins in presence of [gamma33P]ATP by microplate scintillation counter relative to control
[15] = molecular target: Serine/threonine-protein kinase pim-1 (Homo sapiens) (UniProt P11309); experiment: Inhibition of His6-tagged full length human recombinant PIM1 expressed in Sf9 insect cells at 1 uM incubated for 60 mins in presence of [gamma33P]ATP by microplate scintillation counter relative to control
[16] = molecular target: T2, Dual specificity tyrosine-phosphorylation-regulated kinase 1B; experiment: Inhibition of human DYRK1B expressed in Sf9 insect cells at 1 uM incubated for 60 mins in presence of [gamma33P]ATP by microplate scintillation counter relative to control
Target sequence in this assay (Q9Y463 whole entry, looked up, the tested form may be a part): as the sequence (Q9Y463 whole entry, the tested form may be a part) above

[17] = molecular target: Cyclin-dependent kinase 16 (Homo sapiens) (UniProt Q00536); experiment: Inhibition of His6-tagged full length human recombinant CDK16 expressed in Sf9 insect cells at 1 uM incubated for 60 mins in presence of [gamma33P]ATP by microplate scintillation counter relative to control
Chain of Cyclin-dependent kinase 16 (Homo sapiens) (Q00536 whole entry): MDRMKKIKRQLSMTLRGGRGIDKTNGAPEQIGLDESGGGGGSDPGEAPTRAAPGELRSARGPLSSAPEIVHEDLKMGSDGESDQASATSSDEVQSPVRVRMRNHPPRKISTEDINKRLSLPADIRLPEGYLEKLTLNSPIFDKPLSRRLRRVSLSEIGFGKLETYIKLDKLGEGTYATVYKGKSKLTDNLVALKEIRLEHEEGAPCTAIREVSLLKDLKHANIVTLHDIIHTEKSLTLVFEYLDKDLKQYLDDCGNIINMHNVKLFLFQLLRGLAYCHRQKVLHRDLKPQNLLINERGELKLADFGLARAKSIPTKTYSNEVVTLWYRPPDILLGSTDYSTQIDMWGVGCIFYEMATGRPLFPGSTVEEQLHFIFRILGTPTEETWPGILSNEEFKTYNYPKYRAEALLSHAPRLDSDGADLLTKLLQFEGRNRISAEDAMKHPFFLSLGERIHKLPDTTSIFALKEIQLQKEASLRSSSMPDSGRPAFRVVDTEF

[18] = system: HeLa; experiment: Cytotoxicity against human HeLa cells assessed as reduction in cell viability at 30 uM incubated for 24 hrs in presence of staurosporine by MTT assay; format: functional, cell-based
[19] = molecular target: T5, Serine/threonine-protein kinase PRP4 homolog (Homo sapiens, UniProt Q13523); experiment: Inhibition of DNA-tagged human PRP4 expressed in Escherichia coli incubated for 1.5 hrs by KINOMEscan assay
T5 sequence (Q13523 whole entry): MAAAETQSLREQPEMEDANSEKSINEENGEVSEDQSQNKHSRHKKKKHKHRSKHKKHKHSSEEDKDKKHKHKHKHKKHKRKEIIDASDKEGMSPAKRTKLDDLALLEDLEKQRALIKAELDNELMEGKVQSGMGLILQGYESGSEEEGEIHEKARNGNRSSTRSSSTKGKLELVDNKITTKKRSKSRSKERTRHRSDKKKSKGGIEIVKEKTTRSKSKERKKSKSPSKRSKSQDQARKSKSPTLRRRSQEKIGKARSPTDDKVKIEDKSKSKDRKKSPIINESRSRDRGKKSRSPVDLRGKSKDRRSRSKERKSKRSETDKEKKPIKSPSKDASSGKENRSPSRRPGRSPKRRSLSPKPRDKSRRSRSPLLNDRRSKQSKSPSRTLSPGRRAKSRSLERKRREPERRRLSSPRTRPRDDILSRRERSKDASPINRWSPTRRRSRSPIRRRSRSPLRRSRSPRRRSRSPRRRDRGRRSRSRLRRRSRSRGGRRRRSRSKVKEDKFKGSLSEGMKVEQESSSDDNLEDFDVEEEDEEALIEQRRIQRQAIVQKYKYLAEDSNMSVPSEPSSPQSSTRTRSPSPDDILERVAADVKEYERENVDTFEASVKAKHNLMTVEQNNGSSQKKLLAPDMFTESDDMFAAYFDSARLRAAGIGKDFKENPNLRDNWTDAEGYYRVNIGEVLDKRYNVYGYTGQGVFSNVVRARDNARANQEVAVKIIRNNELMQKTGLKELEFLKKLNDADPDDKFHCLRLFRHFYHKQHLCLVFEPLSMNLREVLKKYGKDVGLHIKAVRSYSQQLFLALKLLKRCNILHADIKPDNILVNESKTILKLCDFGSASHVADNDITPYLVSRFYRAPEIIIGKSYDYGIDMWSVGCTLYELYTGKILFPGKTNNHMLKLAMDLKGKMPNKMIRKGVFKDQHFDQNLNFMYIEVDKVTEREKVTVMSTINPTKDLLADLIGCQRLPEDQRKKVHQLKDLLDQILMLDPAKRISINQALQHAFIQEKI

[20] = system: HeLa; experiment: Cytotoxicity against human HeLa cells assessed as cell viability at 30 uM incubated for 24 hrs by MTT assay; format: functional; settings: read-out: Activity
[21] = molecular target: T5, Serine/threonine-protein kinase PRP4 homolog; experiment: Inhibition of human PRP4 using casein as substrate at 1 uM incubated for 120 mins in presence of [gamma-33P-ATP] by radiometric scintillation assay

SMILES | IC50 [1] [µM] | Ki [2] [µM] | Ki [3] [µM] | IC50 [4] [µM] | further results
NC(=O)c1cc2c(-c3cc(N)c(C(=O)NC4CC4)s3)cccc2s1 | – | 0.0895 | 0.814 | – | –
NC(=O)c1cc2c(-c3ccc(C(=O)NC4CC4)s3)cccc2s1 | – | 0.16 | 0.67 | – | –
NC(=O)c1cc2c(-c3ccc(C(=O)NC4CCOCC4)s3)cccc2s1 | – | 0.178 | 1.1 | – | –
NC(=O)c1cc2c(-c3ccc(C(=O)NCc4cccc(N)c4)s3)c(Cl)ccc2s1 | – | 0.0934 | 1.45 | – | –
NC(=O)c1cc2c(-c3ccc(C(=O)NCc4ccccc4O)s3)c(Cl)ccc2s1 | – | 0.0853 | 1.18 | – | –
NC(=O)c1cc2c(-c3ccc(C(=O)NCc4ccccc4N)s3)c(Cl)ccc2s1 | 1.7 | 0.0362 | 0.577 | 0.7 | –
NC(=O)c1cc2c(-c3ccc(C(=O)NCc4cccc(O)c4)s3)c(Cl)ccc2s1 | – | 0.105 | 1.13 | – | –
NC(=O)c1cc2c(-c3ccc(C(=O)NCCn4cc(CO)nn4)s3)cccc2s1 | – | 0.118 | 0.448 | – | –
NC(=O)c1cc2c(-c3ccc(C(=O)NCc4cccc(N)c4)s3)ccc(F)c2s1 | – | 0.491 | 2.31 | – | –

Second part, led by results:

IC50 [1] [µM] | Ki [2] [µM] | Ki [3] [µM] | IC50 [4] [µM] | SMILES | further results
2.7 | 0.0268 | 0.187 | 3.6 | NC(=O)c1cc2c(-c3ccc(C(=O)NCc4ccc(N)cc4)s3)cccc2s1 | –
4.4 | 0.0099 | 0.0653 | 3.4 | NC(=O)c1cc2c(-c3ccc(C(=O)NCc4ccccc4O)s3)cccc2s1 | –
– | 0.119 | 0.66 | – | NC(=O)c1cc2c(-c3ccc(C(=O)NCc4cccc(N)c4)s3)cccc2s1 | –
– | 0.359 | 4.4 | – | NC(=O)c1cc2c(-c3ccc(C(=O)NCc4cccc(Cl)c4)s3)cccc2s1 | –
4.6 | 0.0569 | 0.278 | 4.3 | NC(=O)c1cc2c(-c3ccc(C(=O)NCc4ccccc4)s3)cccc2s1 | –
2 | 0.0859 | 0.642 | 1.8 | NC(=O)c1cc2c(-c3ccc(C(=O)NCc4ccnc(Cl)c4)s3)cccc2s1 | inhibition [5]: > 35%; inhibition [6]: > 35%; inhibition [7]: > 35%; inhibition [8]: > 35%; inhibition [9]: > 35%; inhibition [10]: > 35%; inhibition [11]: > 35%; inhibition [12]: > 35%; inhibition [13]: > 35%; inhibition [14]: > 35%; inhibition [15]: > 35%; inhibition [16]: > 35%; inhibition [17]: > 35%
– | 0.0951 | 0.98 | – | NC(=O)c1cc2c(-c3ccc(C(=O)NCC4CC4)s3)cccc2s1 | –
– | 0.073 | 0.37 | – | NC(=O)c1cc2c(-c3ccc(C(=O)NCc4cccc(O)c4)s3)cccc2s1 | –
1.1 | 0.0678 | 0.238 | 0.8 | NC(=O)c1cc2c(-c3ccc(C(=O)NCc4ccccc4N)s3)cccc2s1 | Activity [18]: Active; Ki [19]: 1.3 µM; viability at 30 µM [20]: > 75%; inhibition [21]: 38%
– | 0.101 | 0.73 | – | NC(=O)c1cc2c(-c3ccc(C(=O)N[C@H](CO)Cc4ccccc4)s3)cccc2s1 | –
